Source: the NIST ThermoML archive (doi:10.1016/j.tca.2013.08.031)

Assay: molar heat capacity at constant volume
Settings: Fluid (supercritical or subcritical phases), Vacuum adiabatic calorimetry

CCC(C)O (stereo not given) [butan-2-ol]
Settings | molar heat capacity at constant volume [J/K/mol]
527.47 K, Mass density=142.27 kg/m3 | 538.57
527.66 K, Mass density=142.27 kg/m3 | 541.75
527.84 K, Mass density=142.27 kg/m3 | 547.68
527.89 K, Mass density=142.27 kg/m3 | 524.19
527.91 K, Mass density=142.27 kg/m3 | 561.92
527.93 K, Mass density=142.27 kg/m3 | 439.91
527.95 K, Mass density=142.27 kg/m3 | 388.84
527.97 K, Mass density=142.27 kg/m3 | 388.92
527.99 K, Mass density=142.27 kg/m3 | 375.57
528.01 K, Mass density=142.27 kg/m3 | 386.62
528.02 K, Mass density=142.27 kg/m3 | 388.84
528.02 K, Mass density=403.55 kg/m3 | 319.46
528.21 K, Mass density=142.27 kg/m3 | 337.77
528.21 K, Mass density=403.55 kg/m3 | 320.21
528.39 K, Mass density=403.55 kg/m3 | 321.69
528.58 K, Mass density=403.55 kg/m3 | 321.69
528.76 K, Mass density=403.55 kg/m3 | 324.65
528.95 K, Mass density=142.27 kg/m3 | 295.37
528.95 K, Mass density=403.55 kg/m3 | 322.43
529.13 K, Mass density=142.27 kg/m3 | 274.69
529.13 K, Mass density=403.55 kg/m3 | 326.14
529.31 K, Mass density=142.27 kg/m3 | 275.36
529.31 K, Mass density=403.55 kg/m3 | 306.86
529.5 K, Mass density=403.55 kg/m3 | 232
529.68 K, Mass density=403.55 kg/m3 | 229.78
529.87 K, Mass density=403.55 kg/m3 | 227.55
530.05 K, Mass density=142.27 kg/m3 | 274.1
530.23 K, Mass density=142.27 kg/m3 | 282.55
530.23 K, Mass density=403.55 kg/m3 | 227.55
530.42 K, Mass density=142.27 kg/m3 | 282.33
530.42 K, Mass density=403.55 kg/m3 | 228.29
530.6 K, Mass density=403.55 kg/m3 | 232
530.79 K, Mass density=184.89 kg/m3 | 471.41
530.79 K, Mass density=403.55 kg/m3 | 229.78
530.97 K, Mass density=184.89 kg/m3 | 466.37
530.97 K, Mass density=403.55 kg/m3 | 232
531.15 K, Mass density=184.89 kg/m3 | 474.16
531.15 K, Mass density=347.06 kg/m3 | 363.2
531.15 K, Mass density=403.55 kg/m3 | 229.78
531.34 K, Mass density=184.89 kg/m3 | 489.72
531.34 K, Mass density=347.06 kg/m3 | 356.52
531.34 K, Mass density=403.55 kg/m3 | 233.48
531.52 K, Mass density=184.89 kg/m3 | 492.32
531.52 K, Mass density=347.06 kg/m3 | 358.01
531.52 K, Mass density=403.55 kg/m3 | 233.48
531.7 K, Mass density=184.89 kg/m3 | 488.16
531.7 K, Mass density=284.93 kg/m3 | 365.79
531.7 K, Mass density=301.19 kg/m3 | 380.99
531.7 K, Mass density=347.06 kg/m3 | 360.23
531.7 K, Mass density=403.55 kg/m3 | 237.19
531.89 K, Mass density=184.89 kg/m3 | 479.34
531.89 K, Mass density=284.93 kg/m3 | 377.35
531.89 K, Mass density=301.19 kg/m3 | 380.99
531.89 K, Mass density=347.06 kg/m3 | 364.68
531.89 K, Mass density=403.55 kg/m3 | 239.41
532.07 K, Mass density=184.89 kg/m3 | 478.97
532.07 K, Mass density=245.67 kg/m3 | 434.57
532.07 K, Mass density=284.93 kg/m3 | 387.43
532.07 K, Mass density=347.06 kg/m3 | 363.94
532.07 K, Mass density=403.55 kg/m3 | 238.67
532.26 K, Mass density=184.89 kg/m3 | 490.54
532.26 K, Mass density=245.67 kg/m3 | 439.02
532.26 K, Mass density=286.65 kg/m3 | 404.56
532.26 K, Mass density=301.19 kg/m3 | 388.4
532.26 K, Mass density=347.06 kg/m3 | 364.68
532.26 K, Mass density=403.55 kg/m3 | 236.45
532.44 K, Mass density=245.67 kg/m3 | 433.61
532.44 K, Mass density=286.65 kg/m3 | 410.63
532.44 K, Mass density=301.19 kg/m3 | 386.17
532.44 K, Mass density=347.06 kg/m3 | 361.71
532.62 K, Mass density=184.89 kg/m3 | 485.64
532.62 K, Mass density=198.25 kg/m3 | 477.94
532.62 K, Mass density=245.67 kg/m3 | 439.84
532.62 K, Mass density=286.65 kg/m3 | 417.75
532.62 K, Mass density=301.19 kg/m3 | 388.4
532.62 K, Mass density=347.06 kg/m3 | 361.71
532.62 K, Mass density=403.55 kg/m3 | 232
532.81 K, Mass density=184.89 kg/m3 | 501.51
532.81 K, Mass density=198.25 kg/m3 | 476.53
532.81 K, Mass density=245.67 kg/m3 | 441.76
532.81 K, Mass density=286.65 kg/m3 | 423.83
532.81 K, Mass density=301.19 kg/m3 | 385.43
532.81 K, Mass density=347.06 kg/m3 | 364.68
532.81 K, Mass density=403.55 kg/m3 | 231.26
532.81 K, Mass density=474.07 kg/m3 | 191.23
532.99 K, Mass density=184.89 kg/m3 | 501.8
532.99 K, Mass density=198.25 kg/m3 | 476.23
532.99 K, Mass density=245.67 kg/m3 | 435.17
532.99 K, Mass density=286.65 kg/m3 | 421.6
532.99 K, Mass density=301.19 kg/m3 | 390.62
532.99 K, Mass density=347.06 kg/m3 | 370.61
532.99 K, Mass density=474.07 kg/m3 | 191.23
533.17 K, Mass density=184.89 kg/m3 | 502.32
533.17 K, Mass density=198.25 kg/m3 | 482.38
533.17 K, Mass density=245.67 kg/m3 | 443.91
533.17 K, Mass density=284.93 kg/m3 | 404.04
533.17 K, Mass density=286.65 kg/m3 | 417.75
533.17 K, Mass density=301.19 kg/m3 | 393.59
533.17 K, Mass density=347.06 kg/m3 | 373.57
533.17 K, Mass density=474.07 kg/m3 | 197.16
533.36 K, Mass density=184.89 kg/m3 | 511.07
533.36 K, Mass density=198.25 kg/m3 | 490.83
533.36 K, Mass density=245.67 kg/m3 | 447.32
533.36 K, Mass density=284.93 kg/m3 | 410.71
533.36 K, Mass density=286.65 kg/m3 | 416.27
